Assay results from PubChem BioAssay AID720570 (Broad Institute, 2013).

These compounds were tested on TC71 Ewing sarcoma viability, CellTiter-Glo ATP, 72 h (assay: cytotoxicity in EWS/Fli1-dependent TC71 cells – cell-based, luminescence, cherry-picked samples, retest, confirmation (AID 720570)).

| Structure (SMILES) | AC35 [µM] |
| --- | --- |
| C[C@@H]1CN([C@H](C)CO)C(=O)Cc2cc(NC(=O)CCCCCC(=O)Nc3ccccc3N)ccc2O[C@@H]1CN(C)CC1CCCCC1 | 16.9 |
| O=c1[nH]c(/C=C2\C=Nc3ccccc32)c(O)n1Cc1ccccc1F | 20.7 |
| C[C@H]1CN([C@@H](C)CO)C(=O)c2cc(N(C)C)ccc2O[C@H]1CN(C)Cc1ccc(C(=O)Nc2ccccc2N)cc1 | 12.1 |
| O=C(N/N=C/c1cccs1)c1n[nH]c2c1CCCC2 | 17.2 |
| COc1ccc(/C=C/C(=O)c2ccc(C(=O)/C=C/c3ccc(OC)c(OC)c3)cc2)cc1OC | 20.4 |
| CC(=NNc1ccc2ccccc2n1)c1ccccn1 | 1.57 |
| COc1ccc(OC)c(/C=C/c2ccnc3ccccc23)c1 | 2.31 |
| COc1ccc(NC(=S)N=Nc2c(O)[nH]c3ccccc23)cc1 | 20.1 |
| CCN1CCS/C1=C\C=C\C1=[N+](CC)CCS1 | 9.96 |
| CC(=NNc1cc(C)c2ccccc2n1)c1ccccn1 | 1.38 |
| Cc1cc(-c2nc3cc(F)ccc3s2)ccc1N | 14.2 |
| COC(=O)C[C@@H]1CC[C@@H]2[C@H](COc3ccc(NC(=O)c4cc(C)on4)cc3C(=O)N2C)O1 | 12 |
| COc1ccc(OC)c(-c2nnc3n2N=C(c2ccc(OC)c(OC4CCCC4)c2)CS3)c1 | 3.81 |
| CCc1ccc(S(=O)(=O)c2ccc(-n3nc(C)cc3N)cc2)cc1 | 19.4 |
| C[C@H](CO)N1C[C@H](C)[C@H](CN(C)Cc2ccc(C(=O)Nc3ccccc3N)cc2)Oc2ccc(N(C)C)cc2C1=O | 11.9 |
| O=C(O)c1ccc(N/N=C/c2c(F)cccc2Cl)cc1 | 3.26 |
| CO[C@H]1CN(C)C(=O)c2cc(NC(=O)NC(C)C)ccc2OC[C@H](C)N(Cc2ccc(-c3ccccn3)cc2)C[C@@H]1C | 20.8 |
| Nc1nc(=S)c2[nH]cnc2[nH]1 | 1.54 |
| CCOC(=O)[C@]12Cc3ccc(C)cc3[C@H]1N(C1CCCCC1)C(=O)c1ccccc12 | 12.1 |

| Structure (SMILES) | AC35 [µM] |
| --- | --- |
| CCCCCCCCNC(C)C(O)c1ccc(SC(C)C)cc1 (configuration not stated) | 12.1 |
| C[C@]12CC[C@H](O)C[C@H]1CC[C@@H]1[C@@H]2C[C@@H](O)[C@]2(C)[C@@H](C3=CC(=O)OC3)CC[C@]12O | 3.35 |
| COc1ccc(NC(=O)N2CCCCN3[C@@H](CO)[C@H](c4ccc(C5=CCCCC5)cc4)[C@@H]3C2)cc1 | 23.3 |
| CCOc1ccc(OCc2ccc(C(=O)NN=Cc3ccc[nH]3)cc2)cc1 | 0.504 |
| COc1cccc(-c2cccc(-c3nc(C(=O)NCC(F)(F)F)cc4c3[C@H](CCO)N([S@@](=O)C(C)(C)C)C4)c2)c1 | 5.61 |
| O=C(NC1CCCC1)N1CCCCN2[C@@H](CO)[C@@H](c3ccc(/C=C/c4ccccc4)cc3)[C@@H]2C1 | 13.6 |
| COc1ccc(S(=O)(=O)Nc2ccc3c(c2)C(=O)N([C@H](C)CO)C[C@@H](C)[C@@H](CN(C)Cc2ccc(C(=O)Nc4ccccc4N)cc2)O3)cc1 | 18.5 |
| C[C@H]1CN([C@@H](C)CO)C(=O)Cc2cc(NC(=O)CCCCCC(=O)Nc3ccccc3N)ccc2O[C@H]1CN(C)Cc1ccc(Oc2ccccc2)cc1 | 11.5 |
| COc1ccc(/C=C/C(=O)c2cc(F)ccc2OC(=O)c2ccccc2OC)cc1OC | 1.59 |
| C[C@]12CC[C@H](O)C[C@H]1CC[C@@H]1[C@@H]2CC[C@]2(C)[C@@H](C3=CC(=O)OC3)CC[C@]12O | 2.11 |
| CC(=O)N1CCCC(c2cc(C(=O)Nc3ccccc3)no2)C1 (configuration not stated) | 12.7 |
| CCCCCCCCn1c2c(c(=N)c3c1CCC3)CCCC2 | 4.88 |
| O=C1c2ccccc2C(=O)c2cc(N3CCCCC3)ccc21 | 23.3 |
| N/C(=C\C(=O)c1cc(Cl)ccc1O)C(Cl)(Cl)Cl | 9.12 |
| Cc1nc(N)nc(N)c1CCCc1ccc(Cl)c(Cl)c1 | 1.81 |
| C[C@@H]1CN([C@@H](C)CO)C(=O)c2cccc(NS(=O)(=O)c3ccc(Cl)cc3)c2O[C@@H]1CN(C)Cc1ccc(C(=O)Nc2ccccc2N)cc1 | 9.9 |
| CCCN1C/C(=C/c2ccc3c(c2)OCO3)C(=O)/C(=C/c2ccc3c(c2)OCO3)C1 | 13.6 |
| N#C[C@H]1[C@H](c2ccc(-c3ccccc3F)cc2)[C@@H](CO)N1C(=O)c1ccccn1 | 13.9 |
